Experimental data taken from patent US10577332B2, “Tetrazole derivatives” (Hoffmann-La Roche Inc., priority 2015, dated 2020).

Key:
human EAAT3 = target: T1, human EAAT3 (Homo sapiens, UniProt P43005); test: FLIPR Membrane Potential (FMP) assay; assay type: cell-based; conditions: HEK-293 cells stably expressing human EAAT3; antagonist applied 15 min before L-glutamate at EC80; Kb by Cheng-Prusoff from IC50
T1 construct: expressed in transfected cells
T1 sequence (P43005 1-524): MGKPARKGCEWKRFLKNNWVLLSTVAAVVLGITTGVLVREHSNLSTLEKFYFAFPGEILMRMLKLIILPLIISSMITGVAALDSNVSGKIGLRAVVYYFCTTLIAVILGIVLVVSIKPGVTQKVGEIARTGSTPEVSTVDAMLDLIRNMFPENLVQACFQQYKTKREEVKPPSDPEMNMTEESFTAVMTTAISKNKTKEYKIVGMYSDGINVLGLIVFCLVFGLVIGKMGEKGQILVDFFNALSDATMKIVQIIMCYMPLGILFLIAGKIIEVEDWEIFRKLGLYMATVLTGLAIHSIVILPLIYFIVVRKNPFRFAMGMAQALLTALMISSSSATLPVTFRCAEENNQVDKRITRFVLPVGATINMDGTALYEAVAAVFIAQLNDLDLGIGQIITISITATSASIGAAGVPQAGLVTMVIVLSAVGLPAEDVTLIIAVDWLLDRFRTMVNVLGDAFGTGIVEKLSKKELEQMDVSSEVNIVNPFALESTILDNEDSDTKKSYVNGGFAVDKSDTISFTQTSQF
Description: The FLIPR Membrane Potential (FMP) Assay
HEK-293 cells stably expressing human EAAT3 were seeded at 55 000 cells/well in growth medium (DMEM glutamate free (Invitrogen 11960-044), 1% Pen Strep (10 ml/l GIBCO BRL No 15140-023), 10% FCS non dialysed heat inactivated, 5 mg/l puromycin) in poly-D-lysine treated 96-well black microtiter plates with clear-bottom. After 24 h, the growth medium was removed and 100 μl/well of Krebs buffer (140 mM NaCl, 4.7 mM KCl, 2.5 mM CaCl2, 1.2 mM MgCl2, 11 mM HEPES, 10 mM D-glucose, pH=7.4) added. The cells were then loaded by adding 100 μl/well FMP assay dye (FLIPR Membrane Potential assay reagent, Molecular Devices). The 96-well plates were then incubated at 37° C. for 1 h. The depolarization of the cells will cause more dye to enter in the cells, where it will bind to intracellular proteins and lipids and cause an increase in the fluorescence signal. Antagonist potency at human EAAT3 was determined by using L-glutamate as agonist at a concentration which gives 80% of the maximum response. The antagonists were applied 15 min before the application of the agonist L-glutamate. The assays were performed at room temperature and measurements done by using a Fluorometric Imaging Plate Reader (FLIPR, Molecular Devices) and filter #2. Responses were measured as peak increase in fluorescence minus basal (i.e. fluorescence without addition of L-glutamate). Kb was determined using the Cheng-Prusoff equation Kb=IC50/[1+(A/EC50)], where IC50 is the concentration of the antagonist producing 50% inhibition, A is the concentration of the agonist against which the IC50 is being determined (at EC80) and EC50 is the concentration of the agonist producing 50% […].

Row | Molecule | melting point | Kb (human EAAT3)
1 | CCC(C)(C)NC(=O)c1cc(-c2ccc(C(F)(F)F)cc2)cc(-n2nnnc2C(C)C)c1 [Example 46, N-(2-Methylbutan-2-yl)-3-(5-propan-2-yltetrazol-1-yl)-5-[4-(trifluoro-methyl)-phenyl]-benzamide] | 89 °C | 190 nM
2 | CC(C)c1nnnn1-c1cc(C(=O)NC(C)(C)C)cc(-c2ccc(C(F)(F)F)cc2)c1 [Example 47, N-tert-Butyl-3-(5-propan-2-yltetrazol-1-yl)-5-[4-(trifluoromethyl)-phenyl]-benzamide] | 92 °C | 270 nM
3 | CCC(C)(C)NC(=O)c1cc(-c2ccc(F)c(Cl)c2)cc(-n2cnnn2)c1 [Example 40, 3-(3-Chloro-4-fluorophenyl)-N-(2-methylbutan-2-yl)-5-(tetrazol-1-yl)-benzamide] | 205 °C | 570 nM
4 | CC(C)(NC(=O)c1cc(-c2ccc(Cl)cc2)cc(-n2cnnn2)c1)C1CC1 [Example 31, 3-(4-Chlorophenyl)-N-(2-cyclopropylpropan-2-yl)-5-(tetrazol-1-yl)-benzamide] | 191 °C | 210 nM
5 | Cc1ccc(-c2cc(C(=O)NC(C)(C)C(F)(F)F)cc(-n3nnnc3C3CC3)c2)cc1 [Example 25, 3-(5-Cyclopropyltetrazol-1-yl)-5-(4-methylphenyl)-N-(1,1,1-trifluoro-2-methylpropan-2-yl)-benzamide] | 82 °C | 270 nM
6 | CC(C)c1nnnn1-c1cc(C(=O)NC2(C)CCS(=O)(=O)C2)cc(-c2ccc(C(F)(F)F)cc2)c1 (racemic) [Example 49, (RS)—N-(3-methyl-1,1-dioxothiolan-3-yl)-3-(5-propan-2-yltetrazol-1-yl)-5-[4-(trifluoromethyl)phenyl]benzamide] | 117 °C | 330 nM
7 | CC(C)c1nnnn1-c1cc(C(=O)NC(C)(C)C)cc(-c2ccc(F)cc2)c1 [Example 61, N-tert-Butyl-3-(4-fluorophenyl)-5-(5-propan-2-yltetrazol-1-yl)-benzamide] | 85 °C | 230 nM
8 | Cc1nnnn1-c1cc(C(=O)NC(C)(C)CO)cc(-c2ccc(Cl)cc2)c1 [Example 64, 3-(4-Chlorophenyl)-N-(1-hydroxy-2-methylpropan-2-yl)-5-(5-methyl-tetrazol-1-yl)-benzamide] | 193 °C | 420 nM
9 | CCc1nnnn1-c1cc(C(=O)NC(C)(C)CC)cc(-c2ccc(C)cc2)c1 [Example 28, 3-(5-Ethyltetrazol-1-yl)-N-(2-methylbutan-2-yl)-5-(4-methylphenyl)-benzamide] | 71.5 °C | 140 nM
10 | CC1(NC(=O)c2cc(-c3ccc(Cl)cc3)cc(-n3nnnc3C3CC3)c2)CCS(=O)(=O)C1 (racemic) [Example 57, (RS)-3-(4-Chlorophenyl)-5-(5-cyclopropyltetrazol-1-yl)-N-(3-methyl-1,1-dioxothiolan-3-yl)-benzamide] | 126 °C | 350 nM
11 | CC(C)(CO)NC(=O)c1cc(-c2ccc(Cl)cc2)cc(-n2cnnn2)c1 [Example 15, 3-(4-Chlorophenyl)-N-(1-hydroxy-2-methylpropan-2-yl)-5-(tetrazol-1-yl)-benzamide] | 137 °C | 800 nM
12 | N-(2-methylbutan-2-yl)-3-(4-methylphenyl)-5-(5-methyltetrazol-1-yl)-benzamide [Example 22] | – | 150 nM
13 | CC(C)c1nnnn1-c1cc(C(=O)NC(C)(C)CO)cc(-c2ccc(C(F)(F)F)cc2)c1 [Example 51, N-(1-Hydroxy-2-methylpropan-2-yl)-3-(5-propan-2-yltetrazol-1-yl)-5-[4-(trifluoromethyl)-phenyl]-benzamide] | – | 370 nM
14 | Cc1ccc(-c2cc(C(=O)NC(C)(C)CO)cc(-n3nnnc3C3CC3)c2)cc1 [Example 32, 3-(5-Cyclopropyltetrazol-1-yl)-N-(1-hydroxy-2-methylpropan-2-yl)-5-(4-methylphenyl)-benzamide] | – | 430 nM
15 | CCC(C)(C)NC(=O)c1cc(-c2ccc(C(C)C)cc2)cc(-n2cnnn2)c1 [Example 8, N-(2-Methylbutan-2-yl)-3-(4-propan-2-ylphenyl)-5-(tetrazol-1-yl)-benzamide] | – | 610 nM
16 | CC(C)c1nnnn1-c1cc(C(=O)NC(C)(C)CO)cc(-c2ccc(Cl)cc2)c1 [Example 50, 3-(4-Chlorophenyl)-N-(1-hydroxy-2-methylpropan-2-yl)-5-(5-propan-2-yltetrazol-1-yl)-benzamide] | – | 260 nM
17 | CCC(C)(C)NC(=O)c1cc(-c2ccc(C3CC3)cc2)cc(-n2cnnn2)c1 [Example 9, 3-(4-Cyclopropylphenyl)-N-(2-methylbutan-2-yl)-5-(tetrazol-1-yl)-benzamide] | – | 540 nM
18 | CCC(C)(C)NC(=O)c1cc(-c2ccc(Cl)c(F)c2)cc(-n2cnnn2)c1 [Example 37, 3-(4-Chloro-3-fluorophenyl)-N-(2-methylbutan-2-yl)-5-(tetrazol-1-yl)-benzamide] | – | 240 nM

Other lines, results leading:

Row | melting point | Kb (human EAAT3) | Molecule
19 | 223.5 °C | 100 nM | CC(C)(C)NC(=O)c1cc(-c2ccc(F)cc2)cc(-n2nnnc2C(C)(C)C)c1 [Example 98, N-tert-Butyl-3-(5-tert-butyltetrazol-1-yl)-5-(4-fluorophenyl)-benzamide]
20 | 95 °C | 620 nM | CC(C)(C)c1nnnn1-c1cc(C(=O)NC(C)(C)C2CC2)cc(-c2ccc(C3CC3)cc2)c1 [Example 114, 3-(5-tert-Butyltetrazol-1-yl)-5-(4-cyclopropylphenyl)-N-(2-cyclopropylpropan-2-yl)-benzamide]
21 | 78 °C | 290 nM | Cc1nnnn1-c1cc(C(=O)NC(C)(C)C2CC2)cc(-c2ccc(F)cc2)c1 [Example 85, N-(2-Cyclopropylpropan-2-yl)-3-(4-fluorophenyl)-5-(5-methyltetrazol-1-yl)-benzamide]
22 | 89 °C | 300 nM | CC(C)(CO)NC(=O)c1cc(-c2ccc(Cl)cc2)cc(-n2nnnc2C(F)(F)F)c1 [Example 76, 3-(4-Chlorophenyl)-N-(1-hydroxy-2-methylpropan-2-yl)-5-[5-(trifluoromethyl)-tetrazol-1-yl]-benzamide]
23 | 212 °C | 250 nM | CC(C)(CO)NC(=O)c1cc(-c2ccc(F)cc2)cc(-n2nnnc2C(C)(C)C)c1 [Example 94, 3-(5-tert-Butyltetrazol-1-yl)-5-(4-fluorophenyl)-N-(1-hydroxy-2-methylpropan-2-yl)-benzamide]
24 | 96 °C | 230 nM | Cc1nnnn1-c1cc(C(=O)NC(C)(C)C(F)(F)F)cc(-c2ccc(Cl)cc2)c1 [Example 70, 3-(4-Chlorophenyl)-5-(5-methyltetrazol-1-yl)-N-(1,1,1-trifluoro-2-methylpropan-2-yl)-benzamide]
25 | 185 °C | 180 nM | CCC(C)(C)NC(=O)c1cc(-c2ccc(Cl)cc2)cc(-n2nnnc2C(F)(F)F)c1 [Example 74, 3-(4-Chlorophenyl)-N-(2-methylbutan-2-yl)-5-[5-(trifluoromethyl)-tetrazol-1-yl]-benzamide]
26 | 82 °C | 150 nM | CC(C)(C)NC(=O)c1cc(-c2ccc(F)cc2)cc(-n2nnnc2C2CC2)c1 [Example 69, N-tert-Butyl-3-(5-cyclopropyltetrazol-1-yl)-5-(4-fluorophenyl)-benzamide]
27 | 263.5 °C | 220 nM | CC(C)(C#N)NC(=O)c1cc(-c2ccc(F)c(F)c2)cc(-n2nnnc2C(C)(C)C)c1 [Example 123, 3-(5-tert-Butyltetrazol-1-yl)-N-(2-cyanopropan-2-yl)-5-(3,4-difluorophenyl)-benzamide]
28 | 88 °C | 490 nM | Cc1cc(-c2cc(C(=O)NC(C)(C)C3CC3)cc(-n3nnnc3C(C)(C)C)c2)ccc1F [Example 110, 3-(5-tert-Butyltetrazol-1-yl)-N-(2-cyclopropylpropan-2-yl)-5-(4-fluoro-3-methylphenyl)-benzamide]
